According to patent US9079048B2, “Cosmetic or dermopharmaceutical composition comprising enkephalin-derived peptides for reducing and/or eliminating facial wrinkles” (Lipotec, S.A., priority 2005, dated 2015):
Non-standard residues stand in square brackets, D forms with d. No end group written: not given here.

Legend:
Format in all cases: cell-based
[1] = tested on: primary cultures of rat hippocampus neurons; experiment: Neuronal exocytosis of [3H]-L-glutamate; conditions: 1 mM peptide alone, 1 hour at 37° C; depolarization with 75 mM KCl and 2 mM CaCl2; FIG. 4
Method: To determine if the enkephalin-derived peptides inhibit the neuronal exocytosis of neurotransmitters, their activity on the release of the neurotransmitter L-glutamate from primary cultures of rat hippocampus neurons was monitored. The exocytosis of this neurotransmitter in neuronal cultures can be achieved by means of the […] depolarization of the cells. The primary cultures of rat embryo hippocampus are prepared by means of conventional methods [Blanes-Mira, C., Merino, J. M., Valera, E., Fernandez-Ballester, G., Gutierrez, L. M., Viniegra, S., Pérez-Payá, E. and Ferrer-Montiel, A. Small peptides patterned after the N-terminus domain of SNAP25 inhibit SNARE complex assembly and regulated exocytosis. J. Neurochem. 88, 124-135] and are maintained in culture for 14 days in an incubator at 37° C. and 5% CO2. The cultures are incubated with [^3H]-L-glutamine to load them with [^3H]-L-glutamate for 3 hours at 37° C. The excess [^3H]-L-glutamine is then washed and they are incubated with 1 mM of the peptides to be studied for 1 hour at 37° C. The release of [^3H]-L-glutamate is carried out by means of depolarization with 75 mM KCl and 2 mM CaCl2 buffered in physiological buffer for 10 minutes at 37° C. The culture medium is collected and the amount of [^3H]-L-glutamate is quantified in a beta radioactivity counter. The results are standardized with respect to the release of [^3H]-L-glutamate in the absence of the peptide and are corrected with respect to the baseline release in the absence of calcium. […] The incubation with the enkephalin-derived peptide defined by SEQ ID NO: 6 caused a 4% inhibition.
In order to determine if the activity of enkephalin-derived peptides is additive and/or synergistic with the exocytosis inhibiting peptide Argireline®, defined by SEQ ID NO: 5, the potency of both peptides for separately and jointly inhibiting the electrically evoked release of [^3H]-L-glutamate in the presence of Ca^2+ was compared. […]

[2] = tested on: neurons in primary cultures of rat dorsal root ganglia; experiment: Neuronal excitability, action potentials evoked by chemical stimulus (pH 6.0), patch clamp current-clamp; conditions: 1 mM peptide
Method: (§1) The activity of the enkephalin-derived peptide defined by SEQ ID NO: 7 (Tyr-D-Ala-Gly-Phe-Leu) on the excitability of neurons was studied in primary cultures of rat dorsal root ganglia. These neurons were extracted following widely known methods [Nicol, G. D., Lopshire, J. C. and Pafford, C. M. (1997) Tumor necrosis factor enhances the capsaicin sensitivity of rat sensory neurons. J. Neurosci. 17, 975-982]. The neurons were cultured in a DMEM medium supplemented with 10% bovine serum, 5% horse serum and 50 ng/mL NGF for 2 days and the electrical activity was followed by means of a patch clamp technique with a conventional electrophysiology equipment in the current-clamp configuration [Hille, B. (2001) Ion channels of excitable membranes. Third Ed. Sinauer Associates, Inc]. Two neuron stimulation protocols were used to determine the inhibitory effect of the enkephalin-derived peptide defined by SEQ ID NO: 7.
The neurons were first stimulated by means of a chemical stimulus such as the exposure to a buffered solution at pH 6.0. In these conditions, acid-dependent channels depolarizing the neuronal membrane are activated, triggering action potentials (FIG. 1). […] The inhibition of neuronal excitability caused by the enkephalin-derived peptide defined by SEQ ID NO: 7 is reversible as shown by the recovery of said excitability after eliminating the peptide from the extracellular medium. […]

[3] = tested on: neurons in primary cultures of rat dorsal root ganglia; experiment: Neuronal excitability, electrically evoked action potentials (40 mV depolarizing stimulus), patch clamp current-clamp; conditions: 1 mM peptide
Method: as §1
Secondly, the effect of the enkephalin-derived peptide defined by SEQ ID NO: 7 on electrically evoked neuronal activity was evaluated. To that end, the neurons were excited with a depolarizing electrical stimulus of 40 mV from their rest potential. As a result, the repetitive action potentials were triggered throughout the electrical stimulation time (FIG. 2). […]

Substance	inhibition of exocytosis of [3H]-L-glutamate [1] [%]	effect on action potentials evoked by exposure to acidic extracellular medium ([2]; buffered solution at pH 6.0, FIG. 1)	reversibility of the inhibition of neuronal excitability after eliminating the peptide ([2]; pH 6.0 stimulus, after washing)	reversibility of the inhibition of electrically evoked action potentials ([3]; after washing)	effect on electrically evoked action potentials ([3]; depolarizing electrical stimulus of 40 mV from rest potential, FIG. 2)
Argireline®: exocytosis inhibiting peptide, acetyl hexapeptide-8 marketed by Lipotec, residues 12 to 17 of protein SNAP-25 (Ac-EEMQRR-NH2; listed as Homo sapiens) [reference compound]	18				
Tyr-Gly-Phe-Leu (YGFL; printed: Tyr-Gly-Phe-Leu) [SEQ ID NO: 6, enkephalin-derived peptide]	4				
Tyr-D-Ala-Gly-Phe-Leu (Y[dA]GFL; listed as Homo sapiens) [SEQ ID NO: 7, enkephalin-derived peptide]	12	inhibition of the action potentials	reversible	partially reversible	decrease in the frequency and amplitude of the action potentials
